Assay results: patent US20250276952A1, “4-AMINOPHENYL-THIAZOLE DERIVATIVES AND METHODS OF USE THEREOF” (CYTEIR THERAPEUTICS, INC., priority 2022, published 2025)
Where two headings read alike, the source gives them in different places.

Legend:
human MCT1 = biological target: T1, human MCT1 (Homo sapiens, UniProt P53985); experiment: MCT1 transport inhibition assay (TPGA uptake, LC-MS/MS); type: cell-based; settings: MDCK-II cells overexpressing human MCT1, TPGA transport, read-out: BioIVT MCT1 Transporter IC50
T1 construct: expressed in transfected cells; host or cells: MDCK-II cells, transiently co-transfected for 48 h
T1 sequence (P53985 1-500): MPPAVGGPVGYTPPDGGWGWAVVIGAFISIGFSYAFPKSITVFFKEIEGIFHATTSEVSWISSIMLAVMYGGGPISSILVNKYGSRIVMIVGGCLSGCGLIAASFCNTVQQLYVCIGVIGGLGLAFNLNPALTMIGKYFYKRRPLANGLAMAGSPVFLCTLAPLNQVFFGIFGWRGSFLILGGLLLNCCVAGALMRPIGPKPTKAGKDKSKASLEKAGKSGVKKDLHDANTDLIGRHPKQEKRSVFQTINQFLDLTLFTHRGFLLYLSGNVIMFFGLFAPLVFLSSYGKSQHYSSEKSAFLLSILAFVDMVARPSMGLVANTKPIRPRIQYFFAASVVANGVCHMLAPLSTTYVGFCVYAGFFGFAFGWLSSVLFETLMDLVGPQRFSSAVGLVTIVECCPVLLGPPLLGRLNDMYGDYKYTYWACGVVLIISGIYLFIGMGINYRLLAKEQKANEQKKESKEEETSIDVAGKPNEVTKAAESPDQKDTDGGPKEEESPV
T1 sequence (P35613 140-385 partner limits assumed): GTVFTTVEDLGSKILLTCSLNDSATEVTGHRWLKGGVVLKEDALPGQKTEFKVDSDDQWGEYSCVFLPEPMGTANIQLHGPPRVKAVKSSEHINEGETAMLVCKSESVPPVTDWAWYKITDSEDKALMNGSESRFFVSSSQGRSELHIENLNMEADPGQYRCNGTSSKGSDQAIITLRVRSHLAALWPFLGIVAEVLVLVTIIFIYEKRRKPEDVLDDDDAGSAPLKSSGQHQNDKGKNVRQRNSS
Experimental: Inhibition of MCT1 transport after treatment with compounds of the present invention was measured in MDCK-II cells that overexpress human MCT1 by quantifying the transport of 2-Thiophene-glycoxylic acid (TPGA) into cells using LC-MS/MS.
MDCK-II cells are seeded at 60,000 cells per well in growth medium (low-glucose DMEM+10% FBS) in 96-well trans-well membrane plates, and incubated overnight (37° C., 5% CO2). Cells were co-transfected with mammalian expression constructs coding for MCT1 and CD147 at a 2:1 ratio or an empty vector control (GFP) and then incubated for 48 h (37° C., 5% CO2). Cells were washed 3 times with HBSS and cells were preincubated with inhibitors or vehicle control at room temperature in HBSS for 30 min with orbital shaking (60 rpm). HBSS was aspirated from the wells and replaced with HBSS with 25 mM Bis-Tris pH5.5+inhibitor or vehicle control+500 μM TPGA and incubated for 1 min at room temperature with orbital shaking (60 rpm). Both the apical and basolateral side of the trans-well insert were washed 4 times with ice-cold PBS. Cells were lysed with 60 μL of cell extraction solution, and the amount of TPGA in each well was quantified in triplicate by LC-MS/MS. The MCT1-mediated uptake rate was calculated using the following equation: […]
Percent inhibition for each concentration of inhibitor tested was calculated using the following equation: […]
Curves were fit to the calculated percent inhibition for each inhibitor, and the IC50 representing the concentration of inhibitor at which MCT1 is inhibited by 50% was calculated from this curve.

[1] = test system: Daudi (Burkitt Lymphoma) cells; experiment: Intracellular lactate accumulation assay (Lactate-Glo, 2 h treatment); type: cell-based; settings: Homo sapiens, read-out: LactateGlo EC50
Experimental: Intracellular lactate accumulation after a 2 h treatment with compounds of the present invention was measured in Daudi (Burkitt Lymphoma) cells using the Lactate-Glo Assay (Promega).
Daudi cells were seeded at 7,500 cells per well in 150 μL of growth medium (RPMI-1640 with 2 mM GlutaMAX+10% FBS) in clear, 96-well, flat-bottom microplates, and incubated overnight (37° C., 5% CO2). Compounds of the present invention were added using an INTEGRA VIAFLO 96 (8 point, 3-fold serial dilution, top concentration 1, 10, or 20 μM, 0.4% final DMSO concentration). After a 2 h incubation (37° C., 5% CO2) microplates containing cells were washed twice with 150 μL ice-cold PBS, resuspended in 25 μL ice-cold PBS containing 12.5 μL 0.6N HCl, and placed on a microplate shaker for 5 min to lyse the cells. Following lysis, 12.5 μL 1M Trizma base was added to neutralize the suspension, and microplates were returned to the microplate shaker for 1 min. Plates were sealed and stored at −20° C. until further processing. On the day of the assay, microplates were thawed for 45 min at room temperate and […] Lactate Detection Reagent (prepared as specified by manufacturer) was added to each well. Microplates were placed on a plate shaker for 1 min and incubated at room temperature for 1 h. Luminescence was measured using a BioTek Cytation 5 Multi-Mode Reader. Curve fitting and calculation of EC50 was performed using GraphPad Prism.

Structure (SMILES)	EC50 [1]	also measured
O=C(Nc1ccccc1C(=O)O)c1cc(S(=O)(=O)c2ccccc2)ccc1Cl [BAY8002]		IC50 (human MCT1; numeric values): 0.073 µM
CC(C)OC(=O)N[C@H]1CC[C@H](c2ncc(-c3ccc(NC(=O)NCc4ccccc4)cc3O)s2)CC1 [Example 20, isopropyl ((trans)-4-(5-(4-(3-benzylureido)-2-hydroxyphenyl)thiazol-2-yl)cyclohexyl)carbamate]	< 0.05 µM	
Cc1[nH]nc(C(F)(F)F)c1Cc1sc2c(c1C(=O)N1C[C@](C)(O)CO1)c(=O)n(C)c(=O)n2C(C)C [AZD3965]		IC50 (human MCT1; numeric values): 0.19 µM
CC(C)OC(=O)N[C@H]1CC[C@H](c2ncc(-c3ccc(NC(=O)NCc4ccccc4)cc3N)s2)CC1 [Example 19, isopropyl ((trans)-4-(5-(2-amino-4-(3-benzylureido)phenyl)thiazol-2-yl)cyclohexyl)carbamate]	< 0.05 µM	
COc1cc(NC(=O)OC(C)C)ccc1-c1cnc([C@H]2CC[C@H](NC(=O)OC(C)C)CC2)s1 [Example 14, isopropyl ((trans)-4-(5-(4-((isopropoxycarbonyl)amino)-2-methoxyphenyl)thiazol-2-yl)cyclohexyl)carbamate]	0.15 to 1 µM	
CC(C)OC(=O)Nc1ccc(-c2cnc([C@H]3CC[C@H](NC(=O)OC(C)C)CC3)s2)c(F)c1 [Example 23, isopropyl ((trans)-4-(5-(2-fluoro-4-((isopropoxycarbonyl)amino)phenyl)thiazol-2-yl)cyclohexyl)carbamate]	> 5 µM	
COCCn1c(-c2ccc(NC(=O)OC(C)C)cc2F)cnc1[C@H]1CC[C@H](NC(=O)OC(C)C)CC1 [Example 32, isopropyl ((trans)-4-(5-(2-fluoro-4-((isopropoxycarbonyl)amino)phenyl)-1-(2-methoxyethyl)-1H-imidazol-2-yl)cyclohexyl)carbamate]		IC50 (human MCT1; class symbols): > 5 µM
